These results are taken from US12012415B2, “Compositions and methods for the diagnosis, treatment and prevention of neoplastic and neurological disorders” (AscentGene, Inc., priority 2018, dated 2024).

The subject of series [1] is human non-small cell lung cancer cell line H841. Kind of series: Cell growth of NSCLC cell lines. The series is classed as cell-based. Particulars: cell growth rate from number of live cells. As to the method:
Rat glioblastoma cell lines C6 (A) and human non-small cell lung cancer cell line H841 (B) were grown in the proper medium and treated with different concentration of drug candidate AG-1031 (P) and AG-1503 (#3). Cell growth rate was calculated based on the number of live cells as compared to concentration in M of selected small molecules of the invention (see FIGS. 6A and 6B).

For series [2], the system named is Aβ1-42-induced cognitive impairments. Kind of series: Open field test in Aβ1-42 Alzheimer's disease rat model. The series is classed as in vivo, rats. Particulars: for number of entries into the center zone: 1 mg/kg i.v. daily 14 days, vs Aβ1-42 group; for total distance / traveling speed: open field, between the four groups. As to the method: (§1) Aβ1-42 (Sigma-Aldrich, St. Louis, MO, USA;) was dissolved in double-distilled water at the concentration of 5 μg/μl, and incubated at 37° C. for one week before surgery. The rats were randomly divided into four groups as Sham (n=8), Sham+AG-1601 (n=8), Aβ1-42 (n=8) and Aβ1-42+AG-1601 (n=8). The Alzheimer's disease rat models were established by intracerebroventricular (i.c.v.) injection of Aβ1-42 aggregates. The animals were anesthetized with intraperitoneal injection of pentobarbital sodium (50 mg/kg) and placed in a stereotaxic apparatus (Narishige, Japan). The head skin of the rat was opened and two small holes were drilled on both sides of skull following the coordinates: 0.8 mm posterior to bregma, +1.4 mm lateral to sagittal suture, 4.0 mm beneath the surface of brain. Aβ1-42 (2.0 μl per side) was injected bilaterally into the lateral ventricles through micro-syringe. The needle was taken out after 5 minutes of the injection to ensure the aggregates were infused completely. Rats in the Sham group underwent the same operational process, but same volumes of double-distilled water were injected instead of Aβ1-42. After surgery, all rats were injected with penicillin (100,000 U) in the hindquarter muscle to prevent infection. The animals of Sham+AG-1601 and Aβ1-42+AG-1601 groups were intravenous injection with AG-1601 (1 mg/kg), while the same volume vehicle was implemented for the other groups every day for 14 days after one week of the postoperative recovery.
The open field test was carried out to evaluate locomotor activity and exploratory behavior. This test was conducted as described previously with little modifications (Sugita et al., 2015). The open field test consists of a circular apparatus (80 cm in diameter, 30 cm high). The circular apparatus was divided into the center zone (30 cm in diameter in the middle of the arena) and the concentric outer circle zone. Rats were placed individually in the outer circle of the apparatus and allowed to explore freely for 5 min. The path of each rat was tracked by a camera-driven tracker system (Ethovision2.0, Noldus, Wagenigen, Netherlands). The number of entries into the center zone, the total distance and the traveling speed during the testing were analyzed.

Another series concerns SIRT1 and p-CREB. Kind of series: Western blot of SIRT1, CREB and p-CREB in hippocampus, Aβ1-42 AD rat model. The series is classed as in vivo, rats. Particulars: vs Aβ1-42 group. As to the method: as §1
Three rats of each group were randomly selected to be sacrificed and their hippocampal tissues were immediately removed at 0° C. and stored at minus 80° C. For subcellular fractionation, 100- to 200-mg weight rat hippocampal tissue was used. The procedure has been described (Yang et al., 2017). The tissues were homogenized for 30 s in 500 μl TEVP buffer containing 320 mM sucrose and the homogenate was obtained. The homogenate (H) was centrifuged at 900×g for 10 min at 4° C., and the supernatant (S1) was centrifuged for 20 min at 10000×g at 4° C. to obtain the cytosolic/light membrane fraction (S2) and the crude synaptosomal fraction pellet (P2). The pellet was resuspended in TEVP buffer containing 35.6 mM sucrose solution and then centrifuged at 25,000×g for 20 min at 4° C. The supernatant was stored at minus 80° C. and referred as the synaptic vesicular fraction (LS1). The pellet, synaptic plasma membranes (LP1), was resuspended in TEVP buffer containing 1% Triton X-100 and centrifuged at 330,000×g for 30 min at 4° C. The supernatant referred as Triton X-100-soluble fraction (TSF) was stored at minus 80° C. The final pellet, the Triton X-100-insoluble fraction (TIF), was homogenized in TEVP buffer containing 1% SDS.
The total homogenate (H) and synaptosomal fractions were analyzed. Equal amounts of 20 μg from each sample were separated via 10% or 13% SDS-PAGE gels and subsequently transferred onto PVDF membranes (Millipore, USA). […] After washing with TBST buffer, signals were visualized with the HRP substrate (Millipore, USA) and detected with a chemiluminescence kit (Tanon 5500, Tanon Science & Technology, China). The gray-scale value of protein band was quantified by NIH Image J program.
For orientation: In western blotting, separated proteins are transferred to a membrane and probed.

In the next series the test system is C6 glioma. Kind of series: C6 intracranial glioma rat model. The series is classed as in vivo, rats. The method, then: SD male rate were intracranially injected with DMEM medium in 10 μl (sham and small plus AG-1601), and C6 cell at 1×10^6 in 10 μl (glioma and glioma plus AG-1601). C6 cells, a type of murine glioma cell lines, were injected into the right striatum in rats to induce glioma formation. C6 cells were cultured in DMEM containing 10% FBS. C6 cells were suspended in DMEM to implant in rats. Rats injected DMEM containing 10% FBS were grouped as Sham. Tumor formation continued for 7 days, followed by AG1601 was intravenous injected once a day for 6 days. Physical findings included: body weight/2d; effects on synaptic plasticity; electrophysiological tests of LTP and CA3-CA1; mechanism of the study (BDNF/TrkB signaling pathway); Western blot; Synaptic plasticity: BDNF/TrkB/PI3K/Akt/NMDA/PSD95/SYP; Tumor suppression: BDNF/TrkB/RAS/ERK/Bcl-2/Bax; Histology and immunohistochemical analysis; HE staining and immunohistochemistry staining; characterization of brain tumor (localization, size, and regions).

The structures appear in SMILES notation.

On to `C=CC1=C(C)c2cc3[nH]c(cc4nc(cc5[nH]c(cc1n2)c(C)c5C=C)C(C)=C4CCC(=O)O)c(CCC(=O)NCCCc1ccccc1)c3C` [AG-1601, 3-(2,8,13,18-tetramethyl-3-(3-oxo-3-((3-phenylpropyl)amino)propyl)-12,17-divinylporphyrin-7-yl)propanoic acid], for which the “inhibition of growth of NSCLC cell lines” value in series [1] is listed as “inhibiting growth of some NSCLC cell lines”. Moreover, in series [2], the “number of entries into the center zone” value is “increased dramatically”, the total distance result is listed as “no significant effect” and the traveling speed result is listed as “no significant effect”. Also, in series [2] (listed as AG-1061), the “number of entries into the center zone” value is “increased significantly”, the total distance entry is “no significant difference” and the traveling speed entry is listed as “no significant difference”. Also, in the series on SIRT1 and p-CREB, the SIRT1 protein level entry is given as “the decline was prevented”, the “expression of CREB” value was “rescued the reductions” and the p-CREB level entry is on record as “significantly increased”. Also, in the series with SIRT1 and p-CREB (listed as AG-1061), the SIRT1 protein level entry is “this decline was prevented” and the p-CREB level result is given as “significantly increased the expression of p-CREB protein”. In the series on C6 glioma (Glioma vs Glioma+AG1601, 2 weeks), the body weights entry was “significant difference was found between them”. Besides, in the series with C6 glioma (Glioma+AG1601 vs Glioma group), the tumor volumes result is reported as “reduced” and the tumor weights entry is “reduced”. The body weights result with C6 glioma (Sham vs Sham+AG1601, 2 weeks) is on record as “without significant difference”. In addition, in the series on C6 glioma (glioma rats treated vs without treatment), the survival time result is “longer”. Also, in the series on C6 glioma (i.v. once a day for 6 days), the glioma growth entry was “could suppress glioma growth”. In the series with C6 glioma (rat model), the “efficacy on C6 xenograft tumor” value is recorded as “shows efficacy”.
